In US9802904B2, “Inhibitors of the USP1/UAF1 deubiquitinase complex and uses thereof” (The United States of America, as represented by the …, priority 2012, dated 2017):

System: U2OS cells
Test: Cytotoxicity assay in osteosarcoma U2OS cell line
Assay type: cell-based, human
Conditions: Homo sapiens, U2OS; alone; read-out: EC50 of killing U2OS cells
Procedure: (§1) The H596 [human non-small cell lung cancer (NSCLC)] cell line was cultured in RFMI-1640 medium containing 10% fetal bovine serum (FBS) at 37° C. and 5% CO2. The HEK293T (human embryonic kidney 293T), U2OS (human osteosarcoma), and HCT116 (human colon cancer) cell lines were cultured in Dulbecco's modified Eagle's medium (DMEM) supplemented with 10% FBS at 37° C. and 5% CO2. All culture mediums contain 100 units/mL penicillin and 0.1 mg/mL streptomycin as antibiotics.
(§2) For cytotoxicity assays, 5×10^3 H596 cells were seeded in each well of the 96-well plate and grown for 24 hr in humidified incubator. […] In the combination assay, cisplatin was dissolved in saline solution and compound 81 was dissolved in DMSO. Equal volume of above solutions was added to each well and cells were incubated for 48 hr. Cells treated with equal volume of DMSO and saline were used as control and designated as 100% viability. The cell viability was measured by CCK-8 solution (Dojindo Molecular Technologies, Inc) as previously described (Chen, J., et al.).
Cytotoxicity assays were run as described in Example 6 using the cisplatin-sensitive NSCLC H460 cell line and the osteosarcoma U2OS cell line.

| Structure (SMILES) | EC50 |
| --- | --- |
| Cc1cnc(-c2ccccc2C(C)C)nc1NCc1ccc(-n2ccnn2)cc1 [Compound 81, N-(4-(1H-1,2,3-triazol-1-yl)benzyl)-2-(2-isopropylphenyl)-5-methylpyrimidin-4-amine] | > 10 µM |

Same assay, conditions: alone; read-out: EC50 of killing U2OS cells

| Structure (SMILES) | EC50 |
| --- | --- |
| N.N.[Cl][Pt][Cl] [cisplatin, reference compound] | 0.629 µM |

System: USP1/UAF1 cellular activity in H596 cells
Test: PCNA and FANCD2 monoubiquitination in H596 cells (Western blot)
Assay type: cell-based, human
Conditions: 30 μM compound 81, 6 hr, as compared to control
Procedure: (§3) HEK293T or H596 cells were plated in 10 cm dishes and synchronized in S-phase with the double-thymidine block method as described previously (Chen et al., Chemistry & Biology, 2011. 18(11): 1390-400). […] Negative control cells were treated with an equal volume of DMSO and saline (0.9% NaCl). After 6 hr at 37° C., cells were harvested and lysed. Cell extracts were separated on SDS-PAGE and transferred to nitrocellulose membrane. The membranes were then blotted with PCNA antibody or FANCD2 antibody, followed by incubation with HRP-conjugated anti-mouse secondary antibody. Images were quantified in FluorChem Q software (Imgen Technologies).

| Structure (SMILES) | PCNA and FANCD2 monoubiquitination |
| --- | --- |
| Cc1cnc(-c2ccccc2C(C)C)nc1NCc1ccc(-n2ccnn2)cc1 [Compound 81, N-(4-(1H-1,2,3-triazol-1-yl)benzyl)-2-(2-isopropylphenyl)-5-methylpyrimidin-4-amine] | increase in PCNA and FANCD2 monoubiquitination |

System: H596 cells
Test: Cytotoxicity assay in H596 cells (CCK-8 cell viability)
Assay type: cell-based, human
Conditions: Homo sapiens, NCI-H596; alone, 48 hr; read-out: EC50 of killing H596 cells
Procedure: as §1, §2

| Structure (SMILES) | EC50 |
| --- | --- |
| Cc1cnc(-c2ccccc2C(C)C)nc1NCc1ccc(-n2ccnn2)cc1 [Compound 81, N-(4-(1H-1,2,3-triazol-1-yl)benzyl)-2-(2-isopropylphenyl)-5-methylpyrimidin-4-amine] | > 10 µM |

Same assay, conditions: alone, 48 hr; read-out: EC50 of killing H596 cells

| Structure (SMILES) | EC50 |
| --- | --- |
| N.N.[Cl][Pt][Cl] [cisplatin, reference compound] | 0.486 µM |

System: USP1/UAF1 cellular activity in HEK293T cells
Test: PCNA and FANCD2 monoubiquitination in HEK293T cells (Western blot)
Assay type: cell-based, human
Conditions: 30 μM compound 81, 6 hr, as compared to control
Procedure: as §3

| Structure (SMILES) | PCNA and FANCD2 monoubiquitination |
| --- | --- |
| Cc1cnc(-c2ccccc2C(C)C)nc1NCc1ccc(-n2ccnn2)cc1 [Compound 81, N-(4-(1H-1,2,3-triazol-1-yl)benzyl)-2-(2-isopropylphenyl)-5-methylpyrimidin-4-amine] | increase in PCNA and FANCD2 monoubiquitination |

Target: USP1/UAF1 (Homo sapiens (Human), UniProt O94782)
Test: qHTS assay for USP1/UAF1 activity (fluorometric, ubiquitin-rhodamine110)
Assay type: biochemical
Conditions: USP1/UAF1 inhibition, Table 1 of Example 8
Procedure: USP1/UAF1 activity was monitored in a fluorometric assay using ubiquitin-rhodamine110. Enzymatic reactions were conducted in an assay buffer (50 mM HEPES, pH 7.8, 0.5 mM EDTA, 100 mM NaCl, 1 mM TCEP, 0.1 mg/mL BSA, and 0.01% Tween-20) that contained 1 nM USP1/UAF1. […] The plates were incubated for 15 min to attain equilibrium, and then the enzymatic reaction was initiated by dispensing 1 μL of Ub-Rho solution (150 nM final concentration). The plates were directly transferred to a ViewLux high-throughput CCD imager (PerkinElmer), where kinetic measurements of rhodamine fluorescence were acquired using a 480 nm excitation/540 nm emission filter set. […] All screening operations were performed on a fully integrated robotic system (Kalypsys Inc., San Diego, Calif.) as described elsewhere. Plates containing DMSO only were included approximately every 50 plates throughout the screen to monitor any systematic trend in the assay signal associated with reagent dispenser variation or decrease in enzyme specific activity. PubChem AID: 651605.

Sequence of USP1/UAF1 (O94782 whole entry): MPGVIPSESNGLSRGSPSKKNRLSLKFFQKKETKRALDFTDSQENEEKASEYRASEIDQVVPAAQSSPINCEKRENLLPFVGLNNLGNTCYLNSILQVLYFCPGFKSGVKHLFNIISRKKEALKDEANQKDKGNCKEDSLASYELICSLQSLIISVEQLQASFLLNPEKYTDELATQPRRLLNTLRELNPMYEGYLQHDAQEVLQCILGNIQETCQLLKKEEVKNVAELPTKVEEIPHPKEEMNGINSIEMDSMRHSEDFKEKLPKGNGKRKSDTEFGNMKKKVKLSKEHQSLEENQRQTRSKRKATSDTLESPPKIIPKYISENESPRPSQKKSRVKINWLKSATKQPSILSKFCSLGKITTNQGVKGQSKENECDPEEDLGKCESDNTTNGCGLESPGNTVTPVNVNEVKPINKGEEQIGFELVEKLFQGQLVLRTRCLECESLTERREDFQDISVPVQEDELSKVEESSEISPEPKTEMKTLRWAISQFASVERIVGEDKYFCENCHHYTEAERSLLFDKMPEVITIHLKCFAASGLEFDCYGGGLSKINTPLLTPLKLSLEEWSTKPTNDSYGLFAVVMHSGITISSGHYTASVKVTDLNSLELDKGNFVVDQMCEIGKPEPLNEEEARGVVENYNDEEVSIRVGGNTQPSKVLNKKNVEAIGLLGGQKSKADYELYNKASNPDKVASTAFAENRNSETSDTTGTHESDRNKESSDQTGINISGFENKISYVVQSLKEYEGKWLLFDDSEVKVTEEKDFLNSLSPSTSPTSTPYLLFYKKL
Sequence of USP1/UAF1 (Q8TAF3 whole entry partner): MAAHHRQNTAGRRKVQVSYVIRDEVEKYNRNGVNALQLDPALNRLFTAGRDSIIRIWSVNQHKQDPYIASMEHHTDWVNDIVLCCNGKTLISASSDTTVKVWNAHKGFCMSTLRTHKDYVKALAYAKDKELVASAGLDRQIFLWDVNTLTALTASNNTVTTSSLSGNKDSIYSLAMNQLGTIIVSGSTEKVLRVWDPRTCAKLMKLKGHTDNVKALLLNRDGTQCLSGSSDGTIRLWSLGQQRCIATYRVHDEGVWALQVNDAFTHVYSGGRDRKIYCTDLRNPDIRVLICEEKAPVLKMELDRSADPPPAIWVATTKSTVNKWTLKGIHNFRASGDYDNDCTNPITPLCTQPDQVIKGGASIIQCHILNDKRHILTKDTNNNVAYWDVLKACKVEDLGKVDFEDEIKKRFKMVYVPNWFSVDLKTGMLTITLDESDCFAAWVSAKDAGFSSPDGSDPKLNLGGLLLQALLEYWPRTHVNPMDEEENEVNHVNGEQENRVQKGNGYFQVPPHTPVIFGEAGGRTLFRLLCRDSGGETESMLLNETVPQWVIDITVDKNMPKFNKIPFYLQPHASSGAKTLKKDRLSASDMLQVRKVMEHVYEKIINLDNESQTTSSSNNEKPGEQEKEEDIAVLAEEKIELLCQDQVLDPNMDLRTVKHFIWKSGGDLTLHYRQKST

| Structure (SMILES) | IC50 |
| --- | --- |
| FC(F)(F)c1ccccc1-c1ncc2c(NCc3cccs3)cccc2n1 [Compound 1] | 7.9 µM |
| FC(F)(F)c1ccccc1-c1ncc2c(NCc3ccccc3)cccc2n1 [Compound 5] | 2.4 µM |
| FC(F)(F)c1ccccc1-c1ncc2c(NCc3ccc(-c4ccccc4)cc3)cccc2n1 [Compound 6] | 3 µM |
| FC(F)(F)c1ccccc1-c1ncc2c(NCc3ccc4c(c3)OCO4)cccc2n1 [Compound 7] | 5.4 µM |
| COc1ccc(CNc2cccc3nc(-c4ccccc4C(F)(F)F)ncc23)cc1 [Compound 8] | 3 µM |
| Fc1ccc(CNc2cccc3nc(-c4ccccc4C(F)(F)F)ncc23)cc1 [Compound 9] | 2.4 µM |
| FC(F)(F)c1ccccc1-c1ncc2c(NCc3ccc(Cl)cc3)cccc2n1 [Compound 10] | 3 µM |
| FC(F)(F)c1ccc(CNc2cccc3nc(-c4ccccc4C(F)(F)F)ncc23)cc1 [Compound 11] | 5.4 µM |
| FC(F)(F)c1ccccc1-c1ncc2c(NCc3ccc(Cl)c(Cl)c3)cccc2n1 [Compound 12] | 11 µM |
| Cc1ccc(CNc2cccc3nc(-c4ccccc4C(F)(F)F)ncc23)s1 [Compound 13] | 4.3 µM |
| N#Cc1ccc(CNc2cccc3nc(-c4ccccc4C(F)(F)F)ncc23)cc1 [Compound 14] | 3.4 µM |
| FC(F)(F)c1ccccc1-c1ncc2c(NCC#Cc3cccnc3)cccc2n1 [Compound 15] | 7.6 µM |
| FC(F)(F)c1ccccc1-c1ncc2c(NCc3ccc(-c4ccc(Cl)c(Cl)c4)cc3)cccc2n1 [Compound 16] | 1.4 µM |
| FC(F)(F)c1ccccc1-c1ncc2c(NCc3ccc(-c4ccc(Cl)cc4)cc3)cccc2n1 [Compound 17] | 2.2 µM |
| FC(F)(F)c1ccccc1-c1ncc2c(NCc3ccc(-c4cccc(Cl)c4)cc3)cccc2n1 [Compound 18] | 1.7 µM |
| FC(F)(F)c1ccccc1-c1ncc2c(NCc3ccc(-c4ccncc4)cc3)cccc2n1 [Compound 19] | 0.48 µM |
| FC(F)(F)c1ccccc1-c1ncc2c(NCc3ccc(-c4cccnc4)cc3)cccc2n1 [Compound 20] | 0.61 µM |
| FC(F)(F)c1ccccc1-c1ncc2c(NCc3ccc(-c4cccnc4)cc3)cccc2n1 [Compound 21] | 1.9 µM |
| FC(F)(F)c1cc(-c2ccc(CNc3cccc4nc(-c5ccccc5C(F)(F)F)ncc34)cc2)ccc1Cl [Compound 22] | 2.2 µM |
| FC(F)(F)c1ccccc1-c1ncc2c(NCc3ccc(N4CCOCC4)cc3)cccc2n1 [Compound 23] | 7.6 µM |
| FC(F)(F)c1cc(-c2ccc(CNc3cccc4nc(-c5ccccc5C(F)(F)F)ncc34)cc2)ccn1 [Compound 24] | 4.3 µM |
| FC(F)(F)c1ccccc1-c1ncc2c(NCc3ccc(C4CCCCC4)cc3)cccc2n1 [Compound 25] | 5.8 µM |

Same assay, conditions: USP1/UAF1 inhibition, Table 3

| Structure (SMILES) | IC50 |
| --- | --- |
| CC(C)c1ccccc1-c1nc(NCc2ccc(-c3ccccc3)cc2)c2sccc2n1 [Compound 50] | 0.12 µM |
| CC(C)c1ccccc1-c1nc(NCc2ccc(-c3ccccc3)cc2)c2ccsc2n1 [Compound 51] | 0.24 µM |
| CC(C)c1ccccc1-c1nc(NCc2ccc(-c3ccccc3)cc2)c2nc[nH]c2n1 [Compound 52] | 2.12 µM |
| CC(C)c1ccccc1-c1nc2c(c(NCc3ccc(-c4ccccc4)cc3)n1)CCC2 [Compound 53] | 1.5 µM |
| CC(C)c1ccccc1-c1nc(NCc2ccc(-c3ccccc3)cc2)c2cccn2n1 [Compound 54] | 0.22 µM |
| CC(C)c1ccccc1C1=NC2CNCCC2C(NCc2ccc(-c3ccccc3)cc2)=N1 (stereo not drawn) [Compound 55] | 0.48 µM |
| CC(C)c1ccccc1C1=NC2CCCC2C(NCc2ccc(-c3ccccc3)cc2)=N1 (stereo not drawn) [Compound 56] | 0.14 µM |
| CC(C)c1ccccc1C1=NC2C=COC2C(NCc2ccc(-c3ccccc3)cc2)=N1 (stereo not drawn) [Compound 57] | 0.15 µM |
| CC(C)c1ccccc1C1=NCCC(NCc2ccc(-c3ccccc3)cc2)=N1 [Compound 58] | 0.12 µM |
| CCc1cnc(-c2ccccc2C(C)C)nc1NCc1ccc(-c2ccccc2)cc1 [Compound 60] | 0.043 µM |
| CC(C)c1ccccc1-c1ncc(F)c(NCc2ccc(-c3ccccc3)cc2)n1 [Compound 61] | 0.061 µM |
| CC(C)c1ccccc1-c1ncc(N)c(NCc2ccc(-c3ccccc3)cc2)n1 [Compound 62] | 0.27 µM |
| CC(C)c1ccccc1-c1ncc(N(C)C)c(NCc2ccc(-c3ccccc3)cc2)n1 [Compound 63] | 0.15 µM |
| CSc1cnc(-c2ccccc2C(C)C)nc1NCc1ccc(-c2ccccc2)cc1 [Compound 64] | 0.086 µM |
| Cc1cc(NCc2ccc(-c3ccccc3)cc2)nc(-c2ccccc2C(C)C)n1 [Compound 65] | 0.48 µM |
| Cc1nc(-c2ccccc2C(C)C)nc(NCc2ccc(-c3ccccc3)cc2)c1C [Compound 66] | 0.14 µM |

Same assay, conditions: USP1/UAF1 inhibition, Table 4

| Structure (SMILES) | IC50 |
| --- | --- |
| Cc1cccc(CNc2nc(-c3ccccc3C(C)C)ncc2C)c1 [Compound 67] | 0.14 µM |
| Cc1cnc(-c2ccccc2C(C)C)nc1NCc1cccnc1 [Compound 68] | 2.2 µM |
| Cc1cnc(-c2ccccc2C(C)C)nc1NCc1cccs1 [Compound 69] | 0.22 µM |
| Cc1cccc(C(CO)Nc2nc(-c3ccccc3C(C)C)ncc2C)c1 (stereo not drawn) [Compound 70] | 1.1 µM |
| Cc1cnc(-c2ccccc2C(C)C)nc1NCC1CCN(C)CC1 [Compound 71] | 30 µM |
| Cc1ccc(-c2ccc(CNc3nc(-c4ccccc4C(C)C)ncc3C)cc2)cn1 [Compound 72] | 0.043 µM |
| Cc1cnc(-c2ccccc2C(C)C)nc1NCc1ccc(-c2ccnc(C(F)(F)F)c2)cc1 [Compound 73] | 0.38 µM |
| Cc1cnc(-c2ccccc2C(C)C)nc1NCC1CCN(c2cccnc2)CC1 [Compound 74] | 0.048 µM |
| Cc1ccc(N2CCC(CNc3nc(-c4ccccc4C(C)C)ncc3C)CC2)cn1 [Compound 75] | 2.2 µM |
| Cc1cnc(-c2ccccc2C(C)C)nc1NCC1CCN(c2cnccn2)CC1 [Compound 76] | 0.12 µM |
| Cc1cnc(-c2ccccc2C(C)C)nc1NCC1CC(c2cccnc2)C1 (stereo not drawn) [Compound 77] | 6.8 µM |
| Cc1cnc(-c2ccccc2C(C)C)nc1NCC1CCN(c2cccnc2)C1 (stereo not drawn) [Compound 78] | 0.48 µM |
| Cc1cnc(-c2ccccc2C(C)C)nc1NCc1ccc(-c2ccc(F)nc2)cc1 [Compound 79] | 0.061 µM |
| Cc1cnc(-c2ccccc2C(C)C)nc1NCc1ccc(C2CCCNC2)cc1 (stereo not drawn) [Compound 80] | 7.6 µM |
| Cc1cnc(-c2ccccc2C(C)C)nc1NCc1ccc(-c2cnn[nH]2)cc1 [Compound 82] | 0.24 µM |
| Cc1cnc(-c2ccccc2C(C)C)nc1NCc1ccc(-c2nnn[nH]2)cc1 [Compound 83] | 7.6 µM |
| Cc1cnc(-c2ccccc2C(C)C)nc1NCc1ccc(C(N)=O)cc1 [Compound 84] | 6.8 µM |
| Cc1cnc(-c2ccccc2C(C)C)nc1NCC1CCN(C2COC2)CC1 [Compound 85] | 15 µM |
| Cc1cnc(-c2ccccc2C(C)C)nc1NCc1ccc(-c2cccnc2)cc1 [Compound 86] | 0.061 µM |
| Cc1cnc(-c2ccccc2C(C)C)nc1NCc1ccc(-c2cc[nH]n2)cc1 [Compound 88] | 0.15 µM |
| Cc1cnc(-c2ccccc2C(C)C)nc1NC1(c2ccc(-c3cccnc3)cc2)CC1 [Compound 89] | 0.034 µM |
| Cc1cnc(-c2ccccc2C(C)C)nc1NC(C)(C)c1ccc(-c2cccnc2)cc1 [Compound 90] | 0.19 µM |
